Publication PMC12040169 (PLOS Biology, 2025)

Experiment: in vitro
Details: human, hela cells

SMILES | viability at 28.5 h, 10 µM [%]
CC1CN(C(=O)Oc2ccccc2)C(C)CN1CCCC(c1ccc(F)cc1)c1ccc(F)cc1 (stereo not shown) [CBK024993C] | 87.4

Same assay, conditions: human, hela cells, % viability

SMILES | viability at 28.5 h, 10 µM [%]
CC1CN(C(=O)NC2CC2)C(C)CN1CCCC(c1ccc(F)cc1)c1ccc(F)cc1 (stereo not shown) [CBK024927C] | 104
CC(=O)N1CCN(CCCC(c2ccc(F)cc2)c2ccc(F)cc2)CC1 [CBK024944C] | 101
CNC(=O)N1CCN(CCOC(c2ccc(F)cc2)c2ccc(F)cc2)CC1 [CBK024948C] | 87.3
CC(C)C(=O)N1CC(C)N(CCCC(c2ccc(F)cc2)c2ccc(F)cc2)CC1C (stereo not shown) [CBK024961C] | 97.6
CCNC(=O)N1CCN(CCCCN2C(=O)CC3(CCCC3)CC2=O)CC1 [CBK024999C] | 102
CCNC(=O)N1CCN(CCCC(O)c2ccc(F)cc2)CC1 (stereo not shown) [CBK025001C] | 118
CCNC(=O)N1CC(C)N(CCCCc2ccc(F)cc2)C(C)C1 (stereo not shown) [CBK025027C] | 89.9
O=C(CCCN1CCN(C(=O)NC2CCC(O)CC2)CC1)c1ccc(F)cc1 (stereo not shown) [CBK025156C] | 97
Cc1cccc(N2CCN(CCCOc3ccc(F)c(F)c3)CC2)n1 [CBK025158C] | 106
COc1cc(C(C)=O)ccc1OCCCN1CCC(O)(C(=O)c2ccc(F)cc2)CC1 [CBK025271C] | 85.8
O=C(CCCN1CCN(CCCC(=O)c2ccc(F)cc2)CC1)c1ccc(F)cc1 [CBK025317C] | 89.1
CC(C)OC(=O)c1cccnc1N1CCN(CCCC(c2ccc(F)cc2)c2ccc(F)cc2)CC1 [CBK025340C] | 103
NC(=O)c1cccnc1N1CCN(CCCN(c2ccc(F)cc2)c2ccc(F)cc2)CC1 [CBK025341C] | 110
CN(C)Cc1ccc(-c2cc3occ(-c4ccccc4)c3c(=O)n2C)cc1 [CBK025372] | 103
CCC1(O)C(C)C(c2ccc(Cl)cc2)NC(c2ccc(Cl)cc2)C1C (stereo not shown) [CBK025376C] | 124
Cc1ccccc1Cn1c(=O)sc2ccccc21 [CBK025408] | 94.9
CSc1ccc(SC/C(N)=N/O)cc1 [CBK025411C] | 96.1
C(=N\Nc1nc2ccccc2[nH]1)/c1cccs1 [CBK025417] | 87.6
CCOc1ccc2c(c1)N1C(=O)NC(C(F)(F)F)(C(F)(F)F)N=C1S2 [CBK025440] | 85.4
CC1(C)CC(=O)Nc2ccccc2S1 [CBK025483] | 98.2
O=C1Nc2ccccc2SC1(O)C(F)(F)F (stereo not shown) [CBK025554] | 114
O=S1(=O)C=C(N2CCCCCC2)CC1 [CBK025571C] | 85.7
CCOC(=O)COc1ccc2nsnc2c1Cl [CBK025603] | 91.4
O=c1[nH]c(NCCCO)nc2sc3c(c12)CCCC3 [CBK025611] | 87.9
NC1=NN2C(=C(c3ccc(O)c(C(=O)O)c3)NN2c2ccccc2)N1 [CBK025631] | 95.2

SMILES | viability at 28.5 h, 10 µM [%]
Cn1c(=O)n(CC#N)c2ccccc21 [CBK025636] | 96.9
COc1ccc(-c2cc3nnc(C)nc3s2)cc1 [CBK025638] | 107
Nn1cnn2c(SCC(=O)Nc3ccc(Cl)cc3)nnc12 [CBK025688] | 99
Nc1nonc1C(=O)NCc1cccnc1 [CBK025695] | 95.9
Cc1ccc(OC(C)c2nc(-c3nonc3N)no2)cc1C (stereo not shown) [CBK025698] | 92.4
Cc1cc(Cl)cc(Cl)c1OCCCc1c(C)n[nH]c1C [CBK025733C] | 76.9
Cc1n[nH]c(C)c1CCCCCOc1ccccc1F [CBK025736C] | 88.9
COc1cc(/C=N/Nc2nonc2N)cc(OC)c1OC [CBK025758] | 73.2
COc1c(I)cc(Br)cc1/C=N/NC(=O)CC#N [CBK025764] | 91.8
Cc1cc(C)n2nc(S(N)(=O)=O)c(C#N)c2n1 [CBK025767] | 90.7
COc1cc(CN2CCN(c3ccccn3)CC2)cc(Br)c1O [CBK025770] | 91.9
COc1ccc(CNC2CCCc3ccccc32)c(OC)c1C (stereo not shown) [CBK025778G] | 77.6
CSc1nc(N)c2nccnc2n1 [CBK025779] | 104
O=C(NC(Sc1ncccn1)C(=O)c1ccccc1)c1ccccc1 (stereo not shown) [CBK025806] | 95.5
CCc1nnc(NC(=O)CSc2nc3c([nH]2)c(=O)n(C)c(=O)n3C)s1 [CBK025840] | 113
C[S+]([O-])CC(O)(c1ccc(F)cc1)C1CC1 (stereo not shown) [CBK025846] | 114
COc1ccc(N(CCC#N)S(=O)(=O)c2cccc3nsnc23)cc1 [CBK025851] | 90.7
COc1ccc2[nH]c3c(=O)n(C)cnc3c2c1 [CBK025870] | 85.8
O=C(c1cccnc1N1CCCCC1)N1CCCCC1 [CBK025882] | 109
CC1(C)SC(c2ccc(F)cc2)N[C@H]1C(=O)O (stereo partly shown) [CBK025917] | 91.4
Nc1nc(N)c2cc(C(F)(F)F)ccc2n1 [CBK025934] | 66.4
Nc1nc(N)c2cccc(F)c2n1 [CBK025945] | 91.4
COc1ccc2c(-n3cncn3)ccnc2c1 [CBK025957] | 90.2
Cc1cc(C)c2nc(-n3cncn3)c(C)cc2c1 [CBK025958] | 88.9
Clc1ccc(CNC2CCCCC2NCc2ccc(Cl)nc2)cn1 (stereo not shown) [CBK025983] | 82.7

SMILES | viability at 28.5 h, 10 µM [%]
CCCn1nnn(-c2cc(OCCOCC)c(Cl)cc2Cl)c1=O [CBK026016] | 99
O=C(O)COc1ccc(Br)cn1 [CBK026021] | 104
CC1NCCc2c1sc1ccccc21 (stereo not shown) [CBK026032C] | 100
COC(=O)c1sc(NC(=O)C2CC2)c(C#N)c1C [CBK026049] | 107
O=C(C1CCC1)N1CCN(c2ccccn2)CC1 [CBK026058] | 107
O=C(Nc1nnc[nH]1)c1cccnc1Cl [CBK026067] | 113
COC(=O)Cn1c(=O)sc2cccc(Cl)c21 [CBK026076] | 93.9
OC(COc1ccccc1)Cn1ncnn1 (stereo not shown) [CBK026083] | 89.6
COc1ccc(CCCC(=O)NC2CCCCC2C)cc1 (stereo not shown) [CBK026124] | 94.3
CCCSc1nnc(-c2c(Cl)c(CC)nn2C)s1 [CBK026135] | 104
Cc1nn(C)c2c1c(=O)n(C)c(=O)n2C [CBK026140] | 89.2
Cc1n[nH]c(O)c1C(c1ccc(Br)o1)c1c(C)n[nH]c1O [CBK026150] | 102
CCc1nnc(N/N=C/c2cccs2)n1N [CBK026233C] | 97.9
CCOc1ccccc1OCC(C)CNC (stereo not shown) [CBK026242G] | 120
CC(C)c1ccc2c(c1)C(N1CCN(C)CC1)Cc1cccnc1S2 (stereo not shown) [CBK026244G] | 98.7
CCc1cccc2c1Sc1ccccc1CC2N1CCN(C)CC1 (stereo not shown) [CBK026248G] | 103
Cc1ccc(SCCNS(C)(=O)=O)cc1 [CBK026280] | 90.8
C/C(CS(=O)(=O)c1ccccc1)=N/NC(N)=S [CBK026285] | 111
Cc1nnc(SCC(=O)c2ccccc2)[nH]1 [CBK026287] | 99.5
CCCC1(OC(=O)Nc2ccc(Cl)cc2)CCCCC1 [CBK026295] | 91.4
Brc1csc(CN2CCN3CCCC3C2C2CCCCC2)c1 (stereo not shown) [CBK026298] | 103
CCOC(=O)C1=NN(C(=O)c2ccc(Cl)cc2)C(O)(C(C)(C)C)C1 (stereo not shown) [CBK026308] | 86
CC1=C(C(=O)OC(C)C)C(c2cccc(I)c2)C2=C(CCCC2=O)N1 (stereo not shown) [CBK026317] | 86.5
OC1CCCCC1C1(NC(=S)Nc2ccccc2)CCCCC1 (stereo not shown) [CBK026324] | 97.9
S=c1[nH]nc(Nc2ccccc2)n1-c1ccccc1 [CBK026332] | 123

SMILES | viability at 28.5 h, 10 µM [%]
Oc1cccnc1CCc1ccccc1 [CBK026334C] | 100
C(=N\Nc1nc2ccccc2[nH]1)/c1cccnc1 [CBK026357] | 115
NC(=O)CS(=O)(=O)c1ccc(Cl)cc1 [CBK026373] | 95.7
O=C(O)CSc1c[nH]c2ccccc12 [CBK026377] | 93.9
O=C(Nc1nc2ccc(Br)cc2s1)C1CC2CCC1C2 (stereo not shown) [CBK026397] | 88.8
Clc1ccc(-c2noc(-c3ccco3)n2)cc1 [CBK026405] | 86
O=C(O)c1nc2n(n1)C(C(F)(F)F)CC(c1cccs1)N2 (stereo not shown) [CBK026415] | 97
CS(=O)(=O)N/N=C/c1ccc(Cl)cc1Cl [CBK026420] | 105
CS(=O)(=O)N/N=C/c1cccc(Br)c1 [CBK026427] | 92.5
Cc1ccsc1CN1CCOCC1 [CBK026429] | 110
NC(=O)N/N=C/c1cc(Br)cs1 [CBK026434] | 81.8
CC(=O)NCC1OCCc2ccccc21 (stereo not shown) [CBK026449] | 98.4
CCC1=NC(c2ccccc2Cl)N(O)C1(C)C (stereo not shown) [CBK026466] | 97.5
CC1CN(c2ccccc2Br)NC1=O (stereo not shown) [CBK026500] | 96.7
O=S(=O)(O)CCCSc1nc2ccccc2o1 [CBK026507N] | 97.2
Brc1ccc(-c2nnco2)cc1 [CBK026512] | 84.3
CCn1c(=O)sc2cc(Br)ccc21 [CBK026526] | 97
CSc1nc2c(cc1C#N)CCC2 [CBK026532] | 108
CCc1nc(C)ccc1O [CBK026535C] | 91
CN1CCC(=NNC(=O)CSCc2ccccc2Br)CC1 [CBK026542] | 104
Cc1ccc(NC(=O)OCC(F)(F)C(F)F)cc1Cl [CBK026548] | 93.1
O=[N+]([O-])c1ccc(CN2CCN(C/C=C/c3ccccc3)CC2)o1 [CBK026551] | 85.1

Same assay, conditions: human, hela cells, % viability, bulk resorufin, single well

SMILES | viability at 28.5 h, 10 µM [%]
Cc1cn(-c2ccc(OC(=O)NC(C)(C)C)c(Cl)c2)c(=O)n1C [CBK025991] | 106
CNCCc1csc2ccc(C)cc12 [CBK026097] | 91.6
